# Assay results as given in patent US9598383B2, “Reactive oxygen species-based prodrugs” (The Regents of the University of California, priority 2013, dated 2017).
# What was measured:
# [1] = H2O2-triggered deprotection of model compounds (conversion to acid), analytical HPLC; type: physicochemical; details: for percent conversion to acid: incubation at RT; for deprotection, conversion to the acid: excess of H2O2 (27 equiv) in buffer, after 4 h of incubation
# Procedure: To be effective prodrugs must have good water solubility and be rapidly converted to the active drug under the desired stimulus. These two aspects were evaluated first in model systems. […] An authentic HPLC trace of each was obtained and was then compared to a trace obtained after 1 h and 4 h of incubation. […] The stability of each compound was tested at physiological pH (100 mM TRIS-HCl, pH 7.2) as well as in the presence of glutathione (9 equiv).
# Injections consisted of 100 μL, of a 50 μM.
# [2] = Stability of model compounds in simulated physiological conditions, analytical HPLC; type: physicochemical; details: for stability: HEPES, RT, 24 h; for stability at physiological pH: 100 mM TRIS-HCl; for stability in the presence of glutathione: glutathione (9 equiv)
# [3] = system: COX-1; experiment: COX inhibition, commercially available fluorescent assay (COX-1); type: biochemical; details: COX-1 isoform
# Procedure: The efficacy of the prodrug to inhibit its target was also evaluated. For proIBU a commercially available fluorescent assay was utilized. ProIBU was tested against both isoforms of the COX enzyme. […] Table 1 and FIG. 3.
# [4] = Hydrolytic stability of prodrugs in buffer and with biologically relevant nucleophiles, analytical HPLC
percent conversion to acid ([1]; 1 h),percent conversion to acid ([1]; 4 h),stability ([2]; pH 7.2 + GSH (9 equiv)),stability ([2]; pH 7.2),stability ([2]; pH 8.0),"deprotection, conversion to the acid [1]",stability at physiological pH ([2]; pH 7.2),stability in the presence of glutathione [2],SMILES,inhibition of COX enzyme [3],"hydrolytic stability ([4]; 100 mM TRIS-HCl, pH 7.4, 24 h at 37° C., 20 equivalents of glutathione)","hydrolytic stability ([4]; 100 mM TRIS-HCl, pH 7.4, 24 h at 37° C., 20 equivalents of lysine)","hydrolytic stability ([4]; 100 mM TRIS-HCl, pH 7.4, 24 h at 37° C., 20 equivalents of serine)","hydrolytic stability ([4]; buffer (100 mM TRIS-HCl, pH 7.4), 24 h at 37° C.)"
13.6%,37.8%,>99%,88.6%,82.5%,–,–,–,"O=C1SCCN1C(=O)c1ccccc1 [Compound 2, 3-benzoylthiazolidin-2-one]",–,–,–,–,–
<1%,<1%,86.3%,>99%,94.5%,–,–,–,"O=C(Cc1ccccc1)N1CCOC1=O [Compound 5, 3-(2-phenylacetyl)oxazolidin-2-one]",–,–,–,–,–
23.3%,67.8%,>99%,>99%,>99%,–,–,–,"O=C(Cc1ccccc1)N1CCSC1=O [Compound 6, 3-(2-phenylacetyl)thiazolidin-2-one]",–,–,–,–,–
81.6%,>99%,45.7%,54.6%,24.4%,full deprotection,poorer stability,poorer stability,"O=C(Cc1ccccc1)N1CCOC1=S [Compound 7, 2-phenyl-1-(2-thioxooxazolidin-3-yl)ethan-1-one]",–,–,–,–,–
87.6%,>99%,39.5%,32.5%,<1%,full deprotection,poorer stability,poorer stability,"O=C(Cc1ccccc1)N1CCSC1=S [Compound 8, 2-phenyl-1-(2-thioxothiazolidin-3-yl)ethan-1-one]",–,–,–,–,–

# The remaining lines, values behind:
SMILES,percent conversion to acid ([1]; 1 h),percent conversion to acid ([1]; 4 h),stability ([2]; pH 7.2 + GSH (9 equiv)),stability ([2]; pH 7.2),stability ([2]; pH 8.0),"deprotection, conversion to the acid [1]",stability at physiological pH ([2]; pH 7.2),stability in the presence of glutathione [2],inhibition of COX enzyme [3],"hydrolytic stability ([4]; 100 mM TRIS-HCl, pH 7.4, 24 h at 37° C., 20 equivalents of glutathione)","hydrolytic stability ([4]; 100 mM TRIS-HCl, pH 7.4, 24 h at 37° C., 20 equivalents of lysine)","hydrolytic stability ([4]; 100 mM TRIS-HCl, pH 7.4, 24 h at 37° C., 20 equivalents of serine)","hydrolytic stability ([4]; buffer (100 mM TRIS-HCl, pH 7.4), 24 h at 37° C.)"
"O=C1OCCN1C(=O)c1ccccc1 [Compound 1, 3-benzoyloxazolidin-2-one]",14.6%,25.6%,>99%,>99%,>99%,–,–,–,–,–,–,–,–
"O=C(c1ccccc1)N1CCOC1=S [Compound 3, Phenyl(2-thioxooxazolidin-3-yl)methanone]",44.7%,>99%,59.5%,95.5%,41.2%,full deprotection,poorer stability,poorer stability,–,–,–,–,–
"O=C(c1ccccc1)N1CCSC1=S [Compound 4, Phenyl(2-thioxothiazolidin-3-yl)methanone]",48.5%,>99%,77.6%,57.0%,54.8%,full deprotection,poorer stability,poorer stability,–,–,–,–,–
"CC(C)Cc1ccc(C(C)C(=O)N2CCSC2=O)cc1 (stereo not drawn) [proIBU, 3-(2-(4-isobutylphenyl)propanoyl)thiazolidin-2-one]",–,–,–,–,–,–,–,–,little to no inhibition,> 99%,> 99%,> 99%,> 99%
